Experimental findings from PubChem BioAssay AID624029 (Broad Institute, 2012) are described below.

The source made the active and inactive calls.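 Rule for the calls: active = compounds lowering HDL uptake fluorescence with a fitted half-maximal potency at most twice the top tested dose; inconclusive = flat partial inhibition of 30 to 70% or an unreliable fit; inactive = the rest.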

Chain of Scavenger receptor class B member 1 (Mus musculus) (Q61009 whole entry, looked up): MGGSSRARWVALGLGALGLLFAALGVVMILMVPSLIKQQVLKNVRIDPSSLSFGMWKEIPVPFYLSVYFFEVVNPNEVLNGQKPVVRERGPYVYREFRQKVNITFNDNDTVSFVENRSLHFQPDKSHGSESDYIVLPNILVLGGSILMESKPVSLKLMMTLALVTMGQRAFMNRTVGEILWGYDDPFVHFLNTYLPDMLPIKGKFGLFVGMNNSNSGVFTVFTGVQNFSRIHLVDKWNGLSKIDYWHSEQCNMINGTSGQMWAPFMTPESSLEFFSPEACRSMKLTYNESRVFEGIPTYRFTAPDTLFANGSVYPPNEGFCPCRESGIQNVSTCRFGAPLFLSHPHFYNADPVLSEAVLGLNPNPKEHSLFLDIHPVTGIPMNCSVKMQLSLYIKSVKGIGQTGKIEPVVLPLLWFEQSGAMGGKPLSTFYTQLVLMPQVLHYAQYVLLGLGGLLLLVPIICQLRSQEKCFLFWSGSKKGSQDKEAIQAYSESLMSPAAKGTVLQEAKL

One assay concerns the target Scavenger receptor class B member 1 (Mus musculus) (UniProt Q61009). In words: blockers of DiI-HDL lipid transfer via SR-BI – cell-based, ldlA[mSR-BI] CHO, DiI fluorescence, dry powder, set 10, dose response (AID 624029). The following applies: CHO ldlA[mSR-BI] DiI-HDL uptake fluorescence, 3 h.
In the case of `CC(C)NC(=O)Nc1ccc2c(c1)C(=O)N([C@H](C)CO)C[C@@H](C)[C@H](CN(C)S(=O)(=O)c1ccc(Cl)cc1)O2`, the AC50 is 293 nM.

The same assay, now with this note: CHO ldlA[mSR-BI] DiI-HDL uptake fluorescence, 3 h; at 35 µM (top of the series).
Regarding `C=CCOC(=O)N(C)C[C@@H]1Oc2ccc(NC(=O)OCC3c4ccccc4-c4ccccc43)cc2C(=O)N([C@H](C)CO)C[C@H]1C`, the “activity change, negative = inhibition” value is “inactive”.

For the molecule `C[C@@H]1CN([C@H](C)CO)C(=O)c2cc(NC(=O)Nc3ccc(F)cc3)ccc2O[C@H]1CN(C)S(=O)(=O)c1ccc(Cl)cc1`, the “activity change, negative = inhibition” value was “inactive”.

As to `CC(C)NC(=O)Nc1ccc2c(c1)C(=O)N([C@H](C)CO[Si](C)(C)C(C)(C)C)C[C@@H](C)[C@H](CN(C)S(=O)(=O)c1ccc(Cl)cc1)O2`, the “activity change, negative = inhibition” value was “inactive”.

In the case of `CNC[C@@H]1Oc2ccc(NC(=O)NC(C)C)cc2C(=O)N([C@H](C)CO[Si](C)(C)C(C)(C)C)C[C@H]1C`, the “activity change, negative = inhibition” value was “inactive”.

Consider `CC(C)NC(=O)Nc1cccc2c1O[C@@H](CN(C)S(=O)(=O)c1ccc(Cl)cc1)[C@H](C)CN([C@H](C)CO)C2=O`, for which the “activity change, negative = inhibition” value was “inactive”.

Take `C=CCOC(=O)N(C)C[C@@H]1Oc2ccc(NC(=O)NC(C)C)cc2C(=O)N([C@H](C)CO[Si](C)(C)C(C)(C)C)C[C@H]1C`: the “activity change, negative = inhibition” value was “inactive”.

Turning to `CC(C)NC(=O)Nc1ccc2c(c1)CC(=O)N([C@H](C)CO)C[C@@H](C)[C@H](CN(C)S(=O)(=O)c1ccc(Cl)cc1)O2`, the “activity change, negative = inhibition” value was “inactive”.

Broadly, the AC50 is the concentration giving half of the maximal activity seen.
